Results reported in US10028961B2, “Therapeutically active compounds and their methods of use” (AGIOS PHARMACEUTICALS, INC., priority 2013, dated 2018).
Where two headings read alike, the source gives them in different places.

Columns and labels:
[1] = system: U87MG pLVX-IDH2 R140Q-neo cells; test: U87MG pLVX-IDH2 R140Q-neo cell based assay, 2-HG by LC-MS; conditions: Homo sapiens, U-87 MG
[2] = molecular target: IDH1 wt/IDH1 R132H heterodimer (Homo sapiens (Human), UniProt O75874, R132H); test: In vitro assay for IDH1m R132H inhibitors, IDH1 wt/IDH1 R132H heterodimer, NADPH depletion (diaphorase/resazurin); assay type: biochemical
How it was run: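 Purified IDH1wt-his/IDH1R132H-flag heterodimer (sf9 co-expression) pre-incubated 1 hr at room temperature with compound and NADPH before α-KG addition. Remaining NADPH read by diaphorase/resazurin conversion to fluorescent resorufin, 5 min at 25° C. Compounds diluted 1:50 from DMSO; IC50 determined.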

[3] = system: Neurosphere cells (TS603); test: Cellular assay for IDH1m R132H inhibitors, 2-HG by LC-MS in neurosphere cells (TS603); assay type: cell-based; conditions: 2-HG in media at 48 hours
How it was run: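 TS603 neurosphere cells in NeuroCult medium were dosed with compound (0.25% DMSO final) at 37 C, 5% CO2. After 48 hours, medium 2-HG was measured by LC-MS. At 72 hours, viability was read by CellTiter-Glo luminescence.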

[4] = molecular target: IDH2 R140Q (Homo sapiens (Human), UniProt P48735, R140Q); test: In vitro assay for IDH2m R140Q inhibitors, cofactor depletion assay; assay type: biochemical; conditions: IDH2 R140Q enzyme
How it was run: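 Remaining cofactor measured fluorimetrically: diaphorase/resazurin Stop Mix […], halting the reaction. Before that, mutant enzyme and compound sat 1 h at RT, then substrate mix (4 μM NADPH, 1.6 mM α-KG) was added for 16 h at RT.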

[5] = molecular target: IDH1-R132H homodimer enzyme (Homo sapiens (Human), UniProt O75874, R132H); test: In vitro assay IDH1-R132H homodimer, NADPH depletion assay with NADPH/NADP preincubation; assay type: biochemical; conditions: 5 μM NADPH and 37.5 μM NADP
Description: The following describes the experimental procedures that can be used to obtain data on columns 3 and 5 of Table 5.
A test compound is prepared as 10 mM stock in DMSO and diluted to 50× final concentration in DMSO, for a 50 μl reaction mixture. IDH enzyme activity converting alpha-ketoglutarate to 2-hydroxyglutaric acid is measured using a NADPH depletion assay. In the assay the remaining cofactor is measured at the end of the reaction with the addition of a catalytic excess of diaphorase and resazurin, to generate a fluorescent signal in proportion to the amount of NADPH remaining. […] The reaction is started with the addition of 10 μl of Substrate Mix ([…], 5 mM alpha-ketoglutarate, in Assay Buffer) and the mixture is incubated for 60 minutes at room temperature.

[6] = system: HT1080 cells; test: Cellular assay for IDH1m R132C inhibitors, 2-HG by LC-MS in HT1080 cells; assay type: cell-based; conditions: Homo sapiens, HT-1080
Description: The following describes the experimental procedures that can be used to obtain data on column 5 of Table 4.
Cells (HT1080 or U87MG) are grown in T125 flasks in DMEM containing 10% FBS, 1× penicillin/streptomycin and 500 ug/mL G418 (present in U87MG cells only). They are harvested by trypsin and seeded into 96 well white bottom plates at a density of 5000 cell/well in 100 ul/well in DMEM with 10% FBS. No cells are placed in columns 1 and 12. Cells are incubated overnight at 37° C. in 5% CO2. The next day test compounds are made up at 2× the final concentration and 100 ul are added to each cell well. The final concentration of DMSO is 0.2% and the DMSO control wells are plated in row G. The plates are then placed in the incubator for 48 hours. At 48 hours, 100 ul of media is removed from each well and analyzed by LC-MS for 2-HG concentrations. The cell plate is placed back in the incubator for another 24 hours. At 72 hours post compound addition, 10 mL/plate of Promega Cell Titer Glo reagent is thawed and mixed. The cell plate is removed from the incubator and allowed to equilibrate to room temperature. Then 100 ul of Promega Cell Titer Glo reagent is added to each well of media. The cell plate is then placed on an orbital shaker for 10 minutes and then allowed to sit at room temperature for 20 minutes. The plate is then read for luminescence with an integration time of 500 ms.
HT1080 cells are maintained in RPMI containing 10% FBS, 1× penicillin/streptomycin. […] The next day compounds are prepared in 100% DMSO and then diluted in media for a final concentration of 0.2% DMSO. Media is removed from the cell plates and 200 μL of the compound dilutions are added to each well. […] The cell plates are then allowed to incubate another 24 hours.

[7] = IDH1 wt/IDH1 R132H heterodimer, 300 μM NADP (saturated), read-out: IDH1 wt/R132H NADPH/NADP IC50 saturated
[8] = IDH1 wt/R132H heterodimer, NADPH/NADP, not saturated, read-out: IDH1 wt/R132H NADPH/NADP IC50 not saturated

IDH1-R132H homodimer enzyme, sequence (O75874 whole entry R132H): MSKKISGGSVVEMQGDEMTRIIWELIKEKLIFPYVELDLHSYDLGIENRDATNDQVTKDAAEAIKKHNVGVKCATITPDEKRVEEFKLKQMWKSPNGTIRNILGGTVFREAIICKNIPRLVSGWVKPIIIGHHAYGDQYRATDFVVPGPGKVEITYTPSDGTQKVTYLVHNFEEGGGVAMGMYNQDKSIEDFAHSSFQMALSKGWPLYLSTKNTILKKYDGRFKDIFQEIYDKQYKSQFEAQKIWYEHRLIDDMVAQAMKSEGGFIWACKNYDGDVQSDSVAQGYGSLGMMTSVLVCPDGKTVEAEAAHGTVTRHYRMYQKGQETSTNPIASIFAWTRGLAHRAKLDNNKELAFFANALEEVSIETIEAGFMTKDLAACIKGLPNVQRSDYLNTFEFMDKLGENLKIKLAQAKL
IDH1 wt/IDH1 R132H heterodimer, sequence (O75874 whole entry R132H): as above
IDH1 wt/IDH1 R132H heterodimer, sequence (O75874 whole entry, stated change not applied): as the sequence (O75874 whole entry R132H) above, with H132R counted along it
IDH2 R140Q, sequence (P48735 40-452 R140Q): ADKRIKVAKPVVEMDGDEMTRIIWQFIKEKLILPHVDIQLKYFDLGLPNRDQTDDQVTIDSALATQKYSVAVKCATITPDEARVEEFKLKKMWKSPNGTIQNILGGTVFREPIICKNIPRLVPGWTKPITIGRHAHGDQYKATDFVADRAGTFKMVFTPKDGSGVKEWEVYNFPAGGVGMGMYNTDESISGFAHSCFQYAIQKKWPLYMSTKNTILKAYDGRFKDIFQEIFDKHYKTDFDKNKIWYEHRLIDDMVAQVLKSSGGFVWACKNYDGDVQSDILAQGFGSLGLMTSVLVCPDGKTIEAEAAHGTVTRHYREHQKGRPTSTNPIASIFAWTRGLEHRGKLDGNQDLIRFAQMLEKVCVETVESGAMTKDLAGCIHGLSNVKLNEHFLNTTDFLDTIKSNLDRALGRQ

| IC50 [1] | IC50 [2, 7] | IC50 [2, 8] | IC50 [3] | IC50 [4] | IC50 [5] | IC50 [6] | SMILES |
| --- | --- | --- | --- | --- | --- | --- | --- |
| < 50 nM | < 50 nM | < 50 nM | < 50 nM | < 50 nM | < 50 nM | 100 to 1000 nM | FC1(F)CC[C@@H](Nc2nc(Nc3ccnc(C(F)(F)F)c3)nc(-c3cncc(C(F)(F)F)n3)n2)C1 [Compound 116] |
| 50 to 100 nM |  | < 50 nM | < 50 nM | 50 to 100 nM | < 50 nM | < 50 nM | FC1(F)CCCC1Nc1nc(NC2CCCC2(F)F)nc(-c2cccc(Cl)n2)n1 (stereo not shown) [Compound 157] |
| < 50 nM |  | < 50 nM | < 50 nM | < 50 nM | < 50 nM | 100 to 1000 nM | Fc1cc(F)cc(Nc2nc(NC3CCC(F)(F)C3)nc(-c3nc(C(F)(F)F)cs3)n2)c1 (stereo not shown) [Compound 159] |
| < 50 nM |  | < 50 nM | < 50 nM | < 50 nM | 50 to 100 nM | 100 to 1000 nM | N#CC1(c2cc(Nc3nc(NCC(F)(F)F)nc(-c4cccc(Cl)n4)n3)ccn2)CC1 [Compound 215] |
| < 50 nM |  | < 50 nM | < 50 nM | < 50 nM | < 50 nM | 50 to 100 nM | N#Cc1cc(F)cc(Nc2nc(NC3CC(F)(F)C3)nc(-c3nc(C(F)(F)F)cs3)n2)c1 [Compound 122] |
| < 50 nM |  | < 50 nM | < 50 nM | < 50 nM | 50 to 100 nM | 100 to 1000 nM | C[C@@H](Nc1nc(Nc2ccnc(C#N)c2)nc(-n2ccc(C(F)(F)F)n2)n1)C(F)(F)F [Compound 207] |
| < 50 nM |  | < 50 nM |  | < 50 nM | < 50 nM | < 50 nM | CC[C@@H](Nc1nc(N[C@H](CC)C(F)(F)F)nc(-c2cccc(Cl)n2)n1)C(F)(F)F [Compound 104] |
| < 50 nM | < 50 nM |  | < 50 nM | < 50 nM |  | < 50 nM | C[C@@H](Nc1nc(N[C@H](C)C(F)(F)F)nc(-c2cncc(C(F)(F)F)n2)n1)C(F)(F)F [Compound 386] |
| 50 to 100 nM | 100 to 1000 nM |  | < 50 nM | 50 to 100 nM |  | 100 to 1000 nM | FC(F)c1ccnc(-c2nc(NC3CC(F)(F)C3)nc(NC3CC(F)(F)C3)n2)n1 [Compound 411] |
| < 50 nM | < 50 nM |  | < 50 nM | < 50 nM |  | 100 to 1000 nM | C[C@@H](Nc1nc(Nc2ccnc(C3(C#N)CC3)c2)nc(-c2cncc(C(F)(F)F)n2)n1)C(F)(F)F [Compound 377] |
| < 50 nM | < 50 nM |  | < 50 nM | < 50 nM |  | < 50 nM | CC(Nc1nc(NC(C)C(F)(F)F)nc(-c2nc(C(F)(F)F)cs2)n1)C(F)(F)F (stereo not shown) [Compound 404] |
| < 50 nM |  | < 50 nM |  | < 50 nM | < 50 nM | 50 to 100 nM | Nc1ccc(F)c(-c2nc(Nc3cc(F)cc(F)c3)nc(NC3CCC(F)(F)C3)n2)n1 (stereo not shown) [Compound 153] |
| < 50 nM | < 50 nM |  | < 50 nM | < 50 nM |  | 50 to 100 nM | N#CC1(c2cc(Nc3nc(N[C@@H]4CCC(F)(F)C4)nc(-c4cncc(C(F)(F)F)n4)n3)ccn2)CC1 [Compound 378] |
|  |  | < 50 nM | < 50 nM |  | 100 to 1000 nM | 100 to 1000 nM | O=C1C[C@H](Nc2nc(NC3CCC(F)(F)C3)nc(-c3cccc(C(F)(F)F)n3)n2)CN1c1ccccn1 (stereo partly shown) [Compound 239] |
| < 50 nM | < 50 nM |  | < 50 nM | < 50 nM |  | 100 to 1000 nM | N#Cc1cc(Nc2nc(N[C@H]3CCC(F)(F)C3)nc(-n3ccc(C(F)(F)F)n3)n2)ccn1 [Compound 381] |
|  |  | < 50 nM | < 50 nM |  | 100 to 1000 nM | 100 to 1000 nM | FC1(F)CCC(Nc2nc(NC3CN(c4ccccn4)C3)nc(-c3cccc(C(F)(F)F)n3)n2)C1 (stereo not shown) [Compound 238] |
| < 50 nM |  | < 50 nM | < 50 nM | < 50 nM |  | < 50 nM | C[C@@H](Nc1nc(N[C@H](C)C(F)(F)F)nc(-c2csc(C(F)(F)F)n2)n1)C(F)(F)F [Compound 114] |
|  |  | 50 to 100 nM | < 50 nM |  | > 1000 nM | 100 to 1000 nM | FC1(F)CCC(Nc2nc(NC3CN(c4cccnc4)C3)nc(-c3cccc(C(F)(F)F)n3)n2)C1 (stereo not shown) [Compound 243] |
| < 50 nM | 100 to 1000 nM |  | < 50 nM | < 50 nM |  | 100 to 1000 nM | FC(F)(F)c1cc(Nc2nc(NCC3CC3)nc(-n3ccc(C(F)(F)F)n3)n2)ccn1 [Compound 407] |
| < 50 nM | < 50 nM |  | < 50 nM | < 50 nM |  | 100 to 1000 nM | N#CC1(c2cc(Nc3nc(NC4CCC(F)(F)CC4)nc(-c4cncc(C(F)(F)F)n4)n3)ccn2)CC1 [Compound 394] |
| < 50 nM | < 50 nM |  |  |  | < 50 nM | 100 to 1000 nM | Fc1cc(F)cc(Nc2nc(NC3CC(F)(F)C3)nc(-c3nc(C(F)(F)F)cs3)n2)c1 [Compound 413] |
| < 50 nM | < 50 nM |  | < 50 nM | < 50 nM |  | 100 to 1000 nM | CC(F)(F)c1cccc(-c2nc(Nc3ccnc(C4(C#N)CC4)c3)nc(NC3CCC(F)(F)C3)n2)n1 (stereo not shown) [Compound 384] |
| < 50 nM |  | < 50 nM | < 50 nM | < 50 nM |  | 100 to 1000 nM | CC(C)(O)CNc1nc(Nc2cc(F)cc(F)c2)nc(-n2ccc(C(F)(F)F)n2)n1 [Compound 235] |
|  |  | 100 to 1000 nM | 50 to 100 nM |  | 100 to 1000 nM | 100 to 1000 nM | CC(C)(O)CNc1nc(NC2CCC(F)(F)C2)nc(-c2cccc(C(F)(F)F)n2)n1 (stereo not shown) [Compound 264] |
| < 50 nM | 50 to 100 nM |  | < 50 nM | < 50 nM |  | 50 to 100 nM | FC1(F)CCC(Nc2nc(Nc3cncc(C(F)(F)F)c3)nc(-c3cccc(C(F)(F)F)n3)n2)C1 (stereo not shown) [Compound 405] |
|  |  | < 50 nM | < 50 nM | < 50 nM | < 50 nM | < 50 nM | C[C@@H](Nc1nc(NC(C(F)(F)F)C(F)(F)F)nc(-c2cccc(Cl)n2)n1)C(F)(F)F [Compound 100] |

| SMILES | IC50 [1] | IC50 [2, 7] | IC50 [2, 8] | IC50 [3] | IC50 [4] | IC50 [5] | IC50 [6] |
| --- | --- | --- | --- | --- | --- | --- | --- |
| Nc1ccc(F)c(-c2nc(NC3CCC(F)(F)CC3)nc(NC3CCC(F)(F)CC3)n2)n1 [Compound 249] | 100 to 1000 nM |  | 50 to 100 nM | 50 to 100 nM | < 50 nM | > 1000 nM | 100 to 1000 nM |
| CC(C)(O)CNc1nc(Nc2cc(F)cc(Cl)c2)nc(-c2cccc(C(C)(F)F)n2)n1 [Compound 236] | < 50 nM |  | < 50 nM |  | < 50 nM | 100 to 1000 nM | > 1000 nM |
| CC(C)(O)CNc1nc(NC2CCC(F)(F)CC2)nc(-c2cccc(C(F)(F)F)n2)n1 [Compound 287] | 100 to 1000 nM |  | 100 to 1000 nM |  | 100 to 1000 nM | > 1000 nM | > 1000 nM |
